Assays:
Format in all cases: in vivo, Glycine max
[1] = system: constitutively GA-deficient transgenic dwarf soybean line 719; assay: Experiment I greenhouse test, seed imbibition, GA-deficient soybean; set-up: Observation on Transgenic Line 719: key: −1: treated plants are shorter as compared to untreated plants; 0: treated plants had the same stature as untreated plants; 1: treated plants are slightly elongated as compared to untreated plants; 2: treated plants are moderately elongated as compared to untreated plants; 3: treated plants are highly elongated as compared to untreated plants; 4: treated plants are extremely elongated as compared to untreated plants; settings: 0.25 mg/ml; for effect in both the constitutive transgenic dwarf and wild-type soybean lines: imbibition, lines 719 and A3237
Text: Seeds are covered with 0.5″ of vermiculite.

[2] = system: constitutively GA-deficient transgenic dwarf soybean line 719; assay: Experiment II second greenhouse test, seed imbibition, GA-deficient soybean; settings: seeds imbibed 6 hours
Description: (The compounds are tested in Experiment I at only one concentration, i.e., 0.25 mg/ml). Test tubes contained […] of ethanol solution per tube. Final volumes are made up to 30 ml with deionized water. After shaking, the treatment solutions (15 ml each) are transferred to each of two 50 ml test tubes. […] Twenty seeds are used in each treatment. Dry seed, ethanol/water-imbibed seed (1% ethanol in water, v/v), and water-imbibed seeds are included as controls. Seeds are imbibed for 6 hours in the test solutions, then planted in bread pans containing Metromix 350 (The Scotts Company, Marysville, Ohio), and covered with 0.5″ Metro-mix. Covered pans are transferred to the greenhouse and subirrigated. Illumination is at a light intensity of 300-400 μmolm^−2s^−1 photosynthetic photon flux; 16 hours light/8 hours dark. Subsequent waterings are also through sub-irrigation until the test is terminated three weeks later. Observations included the number of dwarf, intermediate, and tall plants; plant height; uniformity of rescue; and any visual effects. Digital photographs are also taken.

[3] = system: constitutively GA-deficient transgenic dwarf soybeans (line 719); assay: Summary of first two greenhouse experiments, rescue of GA-deficient soybeans; set-up: key: +: transgenic soybeans are rescued; 0: transgenic soybeans are not rescued
Description: Compounds are first prepared as 25 mg/ml solutions in ethanol as described above, and then diluted into 40 ml of water to prepare the final 0.25 mg/ml treatment solutions. Visual observations on solubilities (milky, clear, etc.) of the treatment solutions are noted. The treatment solutions are divided into two 20 ml portions, each in 50 ml plastic centrifuge tubes. In addition to treating seeds with solutions containing the test compounds, untreated seeds and seeds imbibed in ethanol-water solution (300 μl ethanol in 30 mls of water) are also included in this experiment as controls. In the latter case, 20 seeds are imbibed in 30 mls of solution for six hours.
Two soybean varieties are selected for testing: constitutively GA-deficient transgenic dwarf soybean line 719 (plasmid pMON29801, constitutive FMV promoter/asCPScc; which is a mixture of 719−2 and 719+17), and A3237, the wild-type parent material. […] After imbibition, seeds are removed from the test tubes, placed on wax paper to dry, and planted in bread pans containing farm soil amended with fertilizer at 20 seeds/pan. Seeds are covered with 0.5″ of vermiculite. Pans are transferred to the greenhouse, which had day/night temperatures of 86/68° F. (30/20° C.), and subirrigated. Illumination is at a light intensity of 300-400 μmolm^−2s^−1 photosynthetic photon flux; 16 hours light/8 hours dark. Subsequent waterings are also through sub-irrigation until the test is terminated three weeks later. Observations included the number of dwarf, intermediate, and tall plants; plant height; uniformity of rescue; and any visual effects.
All compounds are tested at final concentrations of 0.25, 0.025, and 0.0025 mg/ml except for GA9, which is tested at 0.125, 0.0125, and 0.00125 mg/ml. (The compounds are tested in Experiment I at only one concentration, i.e., 0.25 mg/ml). Test tubes contained […] of ethanol solution per tube. Final volumes are made up to 30 ml with deionized water. After shaking, the treatment solutions (15 ml each) are transferred to each of two 50 ml test tubes. Treatments 1 to 27 are performed on wild-type line A3237; treatments 28 to 54 are performed on constitutively GA-deficient transgenic dwarf soybean line 719 (a mixture of 719−2 and 719+17). Twenty seeds are used in each treatment. Dry seed, ethanol/water-imbibed seed (1% ethanol in water, v/v), and water-imbibed seeds are included as controls. Seeds are imbibed for 6 hours in the test solutions, then planted in bread pans containing Metromix 350 (The Scotts Company, Marysville, Ohio), and covered with 0.5″ Metro-mix. Covered pans are transferred to the greenhouse and subirrigated. Illumination is at a light intensity of 300-400 μmolm^−2s^−1 photosynthetic photon flux; 16 hours light/8 hours dark. Subsequent waterings are also through sub-irrigation until the test is terminated three weeks later. Observations included the number of dwarf, intermediate, and tall plants; plant height; uniformity of rescue; and any visual effects. Digital photographs are also taken.

[4] = system: AX5/antisense CPScc soybean line 46 (R2); assay: Hilum seed treatment of epicotyl-intensive GA-deficient soybean, seedling height (FIG. 42); settings: 8 DAP
Description: These studies are performed on soybean plants engineered to express their GA-deficient phenotype throughout the life cycle via the use of the constitutive FMV promoter (line 719, FMV/antisense CPScc). In contrast to the constitutive FMV promoter, the peak activity of the AX5 promoter is developmentally restricted to the soybean seedling axis (epicotyl) three to five days after the start of imbibition, with limited expression beyond the seedling stage of development. Soybean lines transformed with the […] cassette therefore display an epicotyl-intensive dwarf phenotype. In these lines, inhibition of the hypocotyl is modest; most of the total height reduction in these plants is due to shortening of the epicotyl. Rescue of […] soybean plants therefore presents different technical challenges from those required for rescue of constitutively GA-deficient transgenic dwarf soybean lines containing the […] construct. […] Seed from both lines is produced from greenhouse-grown plants. […] If multiple applications are made to seeds, the previous application is allowed to dry before a subsequent application is made. […] (29° C.) day and 75° F. night (24° C.). Pots are watered as necessary by overhead hand watering. Hypocotyl and epicotyl measurements are made for each plant at various stages of plant growth. […] The results are shown in FIG. 42, where the error bar represents +/-two times the standard error of the mean (n=12-15). […] The upper dashed horizontal line represents the total height of untreated wild-type […] soybeans. Measurements are made 8 days after planting.

[5] = 0.0025 mg/ml solution (ethanol-water)
[6] = 0.025 mg/ml solution (ethanol-water)
[7] = 0.25 mg/ml solution (ethanol-water)

Row | SMILES | effect in both the constitutive transgenic dwarf and wild-type soybean lines [1] | Observation on Transgenic Line 719 ([1]; seeds imbibed 5 hours) | Significant Visual Observations on Line 719 ([2]; 0.0025 mg/ml) | Significant Visual Observations on Line 719 ([2]; 0.025 mg/ml) | Significant Visual Observations on Line 719 ([2]; 0.25 mg/ml) | Rescue of GA-deficient soybeans [3, 5] | Rescue of GA-deficient soybeans [3, 6] | Rescue of GA-deficient soybeans [3, 7] | effect on line 46 total height [4] | line 46 seedling height ([4]; concentrations up to 40 μg/seed) | Significant Visual Observations on Line 719 ([2]; 0.00125 mg/ml) | Significant Visual Observations on Line 719 ([2]; 0.0125 mg/ml) | Significant Visual Observations on Line 719 ([2]; 0.125 mg/ml) | Rescue of GA-deficient soybeans ([3]; 0.00125 mg/ml solution (ethanol-water)) | Rescue of GA-deficient soybeans ([3]; 0.0125 mg/ml solution (ethanol-water)) | Rescue of GA-deficient soybeans ([3]; 0.125 mg/ml solution (ethanol-water)) | activity relative to GA3, GA3-3-acetate and GA5 [4] | Observation on Transgenic Line 719, remark in words ([1]; seeds imbibed 5 hours)
1 | C=C1C[C@]23C[C@H]1CC[C@H]2[C@]1(C)CCC[C@@](C)(C(=O)O)[C@H]1[C@@H]3C(=O)O [GA12] | rescue (elongated hypocotyls) with very little elongation | 1 | Poor rescue | Incomplete rescue | good rescue, with no overelongation | 0 | + | + | reduced plant height | did not increase line 46 seedling height |  |  |  |  |  |  |  | 
2 | C=C1C[C@]23C[C@@]1(O)CC[C@H]2[C@@]12C=C[C@H](O)[C@@](C)(C(=O)O1)[C@H]2[C@@H]3C(=O)O [GA3, gibberellic acid] | excessive elongation | 3 | Excessive elongation | Excessive elongation | Excessive elongation | + | + | + | rescued AX5/asCPScc soybean line 46 total height, with some hypocotyl over-elongation |  |  |  |  |  |  |  |  | 
3 | C=C1C[C@]23C[C@@]1(O)CC[C@H]2[C@@]12C=C[C@H](OC(C)=O)[C@@](C)(C(=O)O1)[C@H]2[C@@H]3C(=O)O [GA3-3-acetate] | excessive elongation | 3 | good rescue, with no overelongation | Poor rescue | Excessive elongation | + | + | + | rescued AX5/asCPScc soybean line 46 total height, with some hypocotyl over-elongation |  |  |  |  |  |  |  |  | 
4 | C=C1C[C@]23C[C@H]1CC[C@H]2[C@@]12CCC[C@@](C)(C(=O)O1)[C@H]2[C@@H]3C(=O)O [GA9] | excessive elongation | 3 |  |  |  |  |  | + | rescued AX5/asCPScc soybean line 46 total height, with some hypocotyl over-elongation |  | Poor rescue | Good rescue of dwarfs | good rescue, with no overelongation | 0 | + | + | approximately ten times less active | 
5 | C=C1C[C@]23C[C@@]1(O)CC[C@H]2[C@@]12CC=C[C@@](C)(C(=O)O1)[C@H]2[C@@H]3C(=O)O [GA5] | excessive elongation | 4 | Good rescue of dwarfs | good rescue, with no overelongation | Excessive elongation | + | + | + | rescued AX5/asCPScc soybean line 46 total height, with some hypocotyl over-elongation |  |  |  |  |  |  |  |  | 
6 | C=C1C[C@@]23CC[C@H]4[C@@](C)(CCC[C@@]4(C)C(=O)O)[C@@H]2CC[C@@H]1C3 [kaurenoic acid] | rescue (elongated hypocotyls) with very little elongation | 1 | Poor rescue | Poor rescue | Poor rescue | 0 | 0 |  |  |  |  |  |  |  |  |  |  | some rescue

From patent US6723897B2, “Methods for controlling gibberellin levels” (Monsanto Technology, LLC, priority 1998, dated 2004)
